The values below come from patent US6030997A, “Acid labile prodrugs” (priority 1998, dated 2000).

The subject of one series is kidney. The conditions noted are these: rat, in vivo.
Another series has as its system mice. To be noted: i.v.; cited from earlier work.
Another series has as its system Fisher 344 rats. In words: 7-day once daily repeated intravenous toxicity in Fisher 344 rats: clinical signs, mortality, body weight, necropsy. Format: in vivo, rat (Fisher 344). The conditions noted are these: i.v. once daily 7 days, ProGenta equimolar to 60 mg/kg Gentamicin or Gentamicin 60 mg/kg; particularly females; especially striking Day 10.
The next series concerns BALB/c mice. In words: Toxicity of daily intravenous injections in BALB/c mice (proteinuria by Dipstick, mortality, gross pathology). To be noted: day 3, Gentamicin 75 mg/kg i.v. daily. Format: in vivo, mouse (BALB/c).

Experimental for Fisher 344 rats: All animals received 10 mg/liter of sodium bicarbonate in drinking water. All animals were allowed an additional 3-day recovery period. Final assessment of treatment effects was based on monitoring clinical signs, determinations of body weight, serum creatinine levels and urinary protein content. In addition, all animals were subjected to necropsy at termination of the study.
Experimental for kidney: 3.1 The potential intravenous toxicity of the test article ProGenta (in a dose equimolar to 60 mg/kg of Gentamicin, Example 1) following once daily repeated intravenous administrations during 7 days, was studied in a group of seven male and seven female Fisher 344 rats, in comparison to an identically treated and equally sized group treated with the control article Gentamicin (60 mg/kg), and an untreated control group comprising six male and six female rats. All animals received 10 mg/liter of sodium bicarbonate in drinking water. All animals were allowed an additional 3-day recovery period. Final assessment of treatment effects was based on monitoring clinical signs, determinations of body weight, serum creatinine levels and urinary protein content. In addition, all animals were subjected to necropsy at termination of the study.

What is called LD50 is the dose at which mortality reaches 50%. Turning to Gentamicin, in the series with kidney, the proteinuria entry is “reached a peak value” and the urinary protein content entry was “markedly increased”. Moreover, the LD50 in the series with mice is on record as 75 mg/kg. In the series with Fisher 344 rats, the weight gain result is on record as “a relative reduction in normally expected weight gain”. In the series on BALB/c mice, the mortality result is given as “the two mice in the Gentamicin group died several hours after the injection”.
